{"source": "patent US20200128830A1", "about": "“FUSED BICYCLIC HETEROCYCLE DERIVATIVES AS PESTICIDES” (Bayer Aktiengesellschaft, priority 2017, published 2020)", "type_in_all_cases": "in vivo", "key": {"[1]": {"test_system": "Ctenocephalides felis", "assay": "Ctenocephalides felis oral test", "conditions": "application rate 100 ppm in citrated cattle blood; unfed adult cat fleas; after 2 days", "description": "Ctenocephalides felis—Oral Test Solvent: Dimethyl Sulfoxide To produce a suitable active compound formulation, 10 mg of active compound are mixed with 0.5 ml of dimethyl sulfoxide. Dilution with citrated cattle blood gives the desired concentration. About 20 unfed adult cat fleas (Ctenocephalides felis) are placed into a chamber which is closed at the top and bottom with gauze. A metal cylinder whose bottom end is closed with parafilm is placed onto the chamber. The cylinder contains the blood/active compound formulation, which can be imbibed by the fleas through the parafilm membrane. After 2 days, the kill in % is determined. 100% means that all of the fleas have been killed; 0% means that none of the fleas have been killed."}, "[2]": {"test_system": "Musca domestica", "assay": "Musca domestica test", "conditions": "application rate 100 ppm; adult houseflies, sponge with sugar solution; after 2 days", "description": "Musca domestica Test Solvent: Dimethyl Sulfoxide To produce a suitable active compound formulation, 10 mg of active compound are mixed with 0.5 ml of dimethyl sulfoxide, and the concentrate is diluted with water to the desired concentration. Vessels containing a sponge treated with sugar solution and the desired concentration of active compound formulation are populated with 10 adult houseflies (Musca domestica). After 2 days, the kill in % is determined. 100% means that all of the flies have been killed; 0% means that none of the flies have been killed."}, "[3]": {"test_system": "Lucilia cuprina", "assay": "Lucilia cuprina test", "conditions": "application rate 100 ppm; L1 larvae on minced horsemeat; after 2 days", "description": "Lucilia cuprina Test Solvent: Dimethyl Sulfoxide To produce a suitable active compound formulation, 10 mg of active compound are mixed with 0.5 ml of dimethyl sulfoxide, and the concentrate is diluted with water to the desired concentration. About 20 L1 larvae of the Australian sheep blowfly (Lucilia cuprina) are transferred into a test vessel containing minced horsemeat and the active compound preparation of the desired concentration. After 2 days, the kill in % is determined. 100% means that all the larvae have been killed; 0% means that no larvae have been killed."}, "[4]": {"test_system": "Myzus persicae", "assay": "Myzus persicae oral test", "conditions": "120 h, application rate 4 ppm, mixed population of green peach aphids, after 5 days, read-out: efficacy", "description": "Myzus persicae—Oral Test [table] To produce a suitable active compound formulation, 1 part by weight of active compound is dissolved with the stated parts by weight of solvent and made up to the desired concentration with water. 50 μl of the active compound formulation are transferred into microtitre plates and made up to a final volume of 200 μl with 150 μl of IPL41 insect medium (33%+15% sugar). Subsequently, the plates are sealed with parafilm, which a mixed population of green peach aphids (Myzus persicae) within a second microtitre plate is able to puncture and imbibe the solution. After 5 days, the efficacy in % is determined. 100% means that all the aphids have been killed; 0% means that no aphids have been killed."}, "[5]": {"test_system": "Ctenocephalides felis", "assay": "Ctenocephalides felis in vitro contact test with adult cat fleas", "conditions": "application rate 5 μg/cm^2 (=500 g of ai/ha); adult cat fleas in coated glass tube; after 48 h; dead or moribund", "description": "Ctenocephalides felis—In Vitro Contact Tests with Adult Cat Fleas For the coating of the test tubes, 9 mg of active compound are first dissolved in 1 ml of acetone p.a. and then diluted to the desired concentration with acetone p.a. 250 μl of the solution are distributed homogeneously on the inner walls and the base of a 25 ml glass tube by turning and rocking on an orbital shaker (rocking rotation at 30 rpm for 2 h). With 900 ppm of active compound solution and internal surface area 44.7 cm^2, given homogeneous distribution, an area-based dose of 5 μg/cm^2 is achieved. After the solvent has evaporated off, the tubes are populated with 5-10 adult cat fleas (Ctenocephalides felis), sealed with a perforated plastic lid and incubated in a horizontal position at room temperature and ambient humidity. After 48 h, efficacy is determined. To this end, the tubes are stood upright and the fleas are knocked to the base of the tube. Fleas which remain motionless at the base or move in an uncoordinated manner are considered to be dead or moribund. […] 100% efficacy means that all the fleas were dead or moribund. 0% efficacy means that no fleas were harmed."}, "[6]": {"test_system": "Spodoptera frugiperda", "assay": "Spodoptera frugiperda spray test", "conditions": "foliar, 168 h, application rate 100 g/ha, caterpillars on maize leaf discs, after 7 days, read-out: efficacy", "description": "Spodoptera frugiperda—Spray Test [table] To produce a suitable active compound formulation, 1 part by weight of active compound is dissolved with the specified parts by weight of solvent and made up to the desired concentration with water containing an emulsifier concentration of 1000 ppm. To produce further test concentrations, the formulation is diluted with emulsifier-containing water. Leaf discs of maize (Zea mays) are sprayed with an active compound formulation of the desired concentration and, after drying, populated with caterpillars of the fall armyworm (Spodoptera frugiperda). After 7 days, the efficacy in % is determined. 100% means that all the caterpillars have been killed; 0% means that no caterpillar has been killed."}, "[7]": {"test_system": "Phaedon cochleariae", "assay": "Phaedon cochleariae spray test", "conditions": "foliar, 168 h, application rate 100 g/ha, larvae on Chinese cabbage leaf discs, after 7 days, read-out: efficacy", "description": "Phaedon cochleariae—Spray Test\nTo produce a suitable active compound formulation, 1 part by weight of active compound is dissolved with the specified parts by weight of solvent and made up to the desired concentration with water containing an emulsifier concentration of 1000 ppm. To produce further test concentrations, the formulation is diluted with emulsifier-containing water.\nDiscs of Chinese cabbage leaves (Brassica pekinensis) are sprayed with an active compound formulation of the desired concentration and, after drying, populated with larvae of the mustard beetle (Phaedon cochleariae).\nAfter 7 days, the efficacy in % is determined. 100% means that all the beetle larvae have been killed; 0% means that no beetle larvae have been killed."}}}
{"smiles": "CCS(=O)(=O)c1c(-c2nc3cc(C(F)(F)F)ncc3n2C)sc2nc(C(F)(F)F)sc12", "note": "[I-10]", "values": [{"measurement": "efficacy (kill in %)", "setting": "[1]", "result": 80, "unit": "%"}, {"measurement": "efficacy (kill in %)", "setting": "[2]", "result": 80, "unit": "%"}, {"measurement": "efficacy (kill in %)", "setting": "[3]", "result": 100, "unit": "%"}, {"measurement": "pest or weed control at 4 ppm", "setting": "[4]", "result": 90, "unit": "%"}, {"measurement": "efficacy", "setting": "[5]", "result": 100, "unit": "%"}, {"measurement": "pest or weed control at 100 g/ha", "setting": "[6]", "result": 100, "unit": "%"}, {"measurement": "pest or weed control at 100 g/ha", "setting": "[7]", "result": 100, "unit": "%"}]}
